Several values for one entry are separate records, joined by “and”; a condition that tells them apart may be missing. Equal entries are not always repeated. Ends that are not written are not given here.
Legend:
GOTO cells = test: aequorin bioluminescence assay in GOTO cells without exogenous MCHR1 (aequorin only, or no plasmids); type: cell-based, human
Protocol: The aequorin bioluminescence assay can be used to measure the activity of G protein-coupled receptors that couple through the Ga protein subunit family consisting of Gq, G11, and Gi leading to the activation of phospholipase C, mobilization of intracellular calcium and activation of protein kinase C. Measurement of functional MCHR1 expression in GOTO cells transiently expressing aequorin was performed using a Luminoskan RT luminometer (Labsystems Inc., Gaithersburg, Md.) controlled by custom software written for a Macintosh PowerPC 6100.
GOTO cells (1.2×10^7 cells plated 18 hours before transfection in a T75 flask) were transfected with human MCHR1 plasmid DNA and aequorin cDNA using the Lipofectamine 2000 procedure (Life Technologies, Gaithersburg, Md.). Human MCHR1 plasmid DNA contained the open reading frame cDNA (SEQ. ID. NO. 2) encoding the human MCHR1 receptor inserted in the mammalian expression vector pcDNA-3 (Invitrogen, Carlsbad, Calif.). An aequorin expressing plasmid contained the cDNA for aequorin (Button, et al., 1993. Cell Calcium 14, 663-671), inserted in pcDNA-3. Following approximately 40 hours of expression the apo-aequorin in the cells was charged for 1 hour with coelenterazine (10 μM) under reducing conditions (300 μM reduced glutathione) in ECB buffer (140 mM NaCl, 20 mM KCl, 20 mM HEPES-NaOH [pH=7.4], 5 mM glucose, 1 mM MgCl2, 1 mM CaCl2, 0.1 mg/ml bovine serum albumin). The cells were harvested, washed once in ECB medium and resuspended to 500,000 cells/ml or 1,000,000cells/ml.
Lysophosphatidic acid triggers native edg receptors coupled to PLC activation present on GOTO cells. The integrated light emission was recorded over 30 seconds, in 0.5 second units. 20 μL of lysis buffer (0.1% final Triton X-100 concentration) was then injected and the integrated light emission recorded over 10 seconds, in 0.5 second units. The “fractional response” values for each well were calculated by taking the ratio of the integrated response to the initial challenge to the total integrated luminescence including the Triton X-100 lysis response.

[1] = biological target: human melanin-concentrating hormone receptor 1 (MCHR1) (human) (UniProt Q99705); test: cell-based or functional assay
Chain of human melanin-concentrating hormone receptor 1 (MCHR1) (human) (Q99705 whole entry): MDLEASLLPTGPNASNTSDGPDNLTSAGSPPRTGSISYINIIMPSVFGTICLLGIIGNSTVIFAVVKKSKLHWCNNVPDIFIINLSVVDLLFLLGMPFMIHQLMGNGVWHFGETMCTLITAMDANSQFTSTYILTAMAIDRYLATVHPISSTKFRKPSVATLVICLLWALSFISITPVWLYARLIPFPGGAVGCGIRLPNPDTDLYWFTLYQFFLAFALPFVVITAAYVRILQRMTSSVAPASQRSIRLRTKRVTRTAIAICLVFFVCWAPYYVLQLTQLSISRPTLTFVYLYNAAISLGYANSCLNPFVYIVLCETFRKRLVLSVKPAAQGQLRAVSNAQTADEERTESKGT

human MCHR1 = biological target: T1, human MCHR1 (Homo sapiens, UniProt Q99705); test: aequorin bioluminescence assay in GOTO cells co-transfected with aequorin and human MCHR1; type: cell-based; settings: 1 μM; GOTO cells transfected with AEQ + MCHR1
T1 construct: expressed in transfected cells; host or cells: GOTO human neuroblastoma cells, transient co-transfection with aequorin cDNA (pcDNA-3, Lipofectamine 2000)
T1 sequence (Q99705 whole entry): as above
Protocol: 20 μL of lysis buffer (0.1% final Triton X-100 concentration) was then injected and the integrated light emission recorded over 10 seconds, in 0.5 second units. The “fractional response” values for each well were calculated by taking the ratio of the integrated response to the initial challenge to the total integrated luminescence including the Triton X-100 lysis response.

[2] = 1 μM, GOTO cells, No Aeq (no aequorin and no MCHR1 plasmid)

Row | Substance | bioluminescence (GOTO cells; [2]) [cps] | signal over background (in words) (GOTO cells; GOTO cells, absence of exogenous MCHR1, background = buffer injection only (ECB)) | aequorin bioluminescence (cps), GOTO cells transfected with AEQ + MCHR1, MCH (1 µM) [1] | bioluminescence (human MCHR1) [cps] | bioluminescence (GOTO cells; 1 μM, GOTO cells transfected with AEQ only (no MCHR1 plasmid)) [cps] | control response, calcium mobilization via edg receptor (in words) (GOTO cells; 1 μM, GOTO cells, native edg receptor)
1 | Melanin-concentrating hormone (DFDMLRCMLGRVYRPCWQV; ends and bridges not checked; also: cyclic, ring closure not given here) [MCH] | 0 | no signal over background |  |  |  | 
2 | Melanin-concentrating hormone (MCH) (from UniProt P20382 147-165) (peptide) |  |  | 26.4 cps and 26.6 cps |  |  | 
3 | lysophosphatidic acid [LPA] | 0 |  |  | 6.83 | 5.24 | control response evoked

Reference: patent US20040072287A1 (priority 2003, published 2004)
